From patent US4694069A, “Kibdelosporangium aridum SK&F-AAD-609” (SmithKline Beckman Corporation, priority 1985, dated 1987)

What was measured:
[1] = system: rumen fermentation (strained rumen fluid); assay: Rumen in vitro model; parameters: species or system steer; settings: for AAN (alpha amino nitrogen) / AMO (ammonia nitrogen) / LYS (lysine): 6 h; for % PR (percent propionate) / ACE (acetate) / BUT (butyrate) / ETOH (ethanol) / IBU (isobutyrate) / IVA (isovalerate) / PRO (propionate) / TOTAL (total volatile fatty acids) / VAL: 24 h
Experimental: The AAD-609 antibiotics were characterized in a rumen in vitro model to assess their potential as feed additives for ruminants. […] Specifically, strained rumen fluid (10 ml) obtained from a fistulated steer receiving a roughage ration, was mixed with 10 ml of nutrient broth (20 mg casein hydrolysate, 100 mg maltose, 15 mg urea, 400 mg solka floc (cellulose), 100 mg cellobiose and 100 mg starch) and with a selected growth promotant and incubated at 39° C., with oscillation, for 24 hours. […] Measurement of AMO, LYS and AAN was done with a sample taken from the incubation flask after 6 hours.

[2] = system: mixed intestinal microflora (cecum fluid); assay: Swine in vitro model; settings: one level, up to 166.67 ppm; 4-5 h
Experimental: A swine in vitro model was used to characterize AAD-609 antibiotics as potential feed additives in swine and poultry. Mixed intestinal microflora were obtained from ileally-cannulated pigs. Virginiamycin, carbadox, AAD-216 and its components, and AAD-609 Complex (containing less than 5% AAD-216 antibiotics) were tested at one level. […] Glucose (GLU) was spared from microbial degradation. Volatile fatty acids (TOTAL) were the major end-product of microbial metabolism while lactic acid production were reduced. […] Since AAD-609 and AAD-216 give similar in vitro results, it is expected that AAD-609 has similar growth-promoting activity in monogastric animals. Also, the in vitro activity of AAD-609 is similar to the activity previously observed with bacitracin in this model.
The swine in vitro model was carried out by incubating 1.5 ml of cecum fluid, from a swine fed normal rations, mixed with 1.5 ml of a nutrient broth (3 mg casein hydrolysate, 30 mg maltose, 1.25 mg urea, 0.5 mg lysine, and 30 mg cellobiose) and with up to 166.67 parts per million of a selected growth promotant at 39° C., with oscillation, for about 4-5 hours. Results, percentage of control, are reported in the following table in which all abbreviations are as above except that LLA means L-lactate and ETOH means ethanol.

For `CNC1C(=O)NC2C(=O)NC(C(=O)NC3C(=O)NC4C(=O)NC(C(=O)NC(C(=O)O)c5cc(O)cc(OC6OC(CO)C(O)C(O)C6O)c5-c5cc4ccc5O)C(O)c4cc(Cl)c(c(Cl)c4)Oc4cc3cc(c4OC3OC(C(=O)O)C(O)C(O)C3NC(=O)CCCCCCCC(C)C)Oc3ccc(cc3Cl)C2O)c2cc(cc(O)c2Cl)Oc2cc1ccc2O` (stereo not drawn) [AAD-216 B], the “AAN (alpha amino nitrogen)” value ([1]; 0.50 ppm) was 121 % of control, the “AMO (ammonia nitrogen)” value ([1]; 0.50 ppm) was 96 % of control and the “LYS (lysine)” value ([1]; 0.50 ppm) was 96 % of control. For the same compound, the “% PR (percent propionate)” value ([1]; 0.50 ppm) was 104 % of control, the “ACE (acetate)” value ([1]; 0.50 ppm) was 107 % of control and the “BUT (butyrate)” value ([1]; 0.50 ppm) was 97 % of control. The “ETOH (ethanol)” value ([1]; 0.50 ppm) was 0 % of control, the “IBU (isobutyrate)” value ([1]; 0.50 ppm) was 108 % of control and the “IVA (isovalerate)” value ([1]; 0.50 ppm) was 94 % of control. For the same compound, the “PRO (propionate)” value ([1]; 0.50 ppm) was 108 % of control, the “TOTAL (total volatile fatty acids)” value ([1]; 0.50 ppm) was 103 % of control and the VAL ([1]; 0.50 ppm) was 101 % of control. The “AAN (alpha amino nitrogen)” value ([1]; 5.00 ppm) was 140 % of control, the “AMO (ammonia nitrogen)” value ([1]; 5.00 ppm) was 93 % of control and the “LYS (lysine)” value ([1]; 5.00 ppm) was 120 % of control. The “% PR (percent propionate)” value ([1]; 5.00 ppm) was 141 % of control, the “ACE (acetate)” value ([1]; 5.00 ppm) was 106 % of control and the “BUT (butyrate)” value ([1]; 5.00 ppm) was 88 % of control. For the same compound, the “ETOH (ethanol)” value ([1]; 5.00 ppm) was 0 % of control, the “IBU (isobutyrate)” value ([1]; 5.00 ppm) was 95 % of control and the “IVA (isovalerate)” value ([1]; 5.00 ppm) was 67 % of control. The “PRO (propionate)” value ([1]; 5.00 ppm) was 153 % of control, the “TOTAL (total volatile fatty acids)” value ([1]; 5.00 ppm) was 108 % of control and the VAL ([1]; 5.00 ppm) was 86 % of control. For the same compound, the “AAN (alpha amino nitrogen)” value ([1]; 50.00 ppm) was 178 % of control, the “AMO (ammonia nitrogen)” value ([1]; 50.00 ppm) was 107 % of control and the “LYS (lysine)” value ([1]; 50.00 ppm) was 132 % of control. For the same compound, the “% PR (percent propionate)” value ([1]; 50.00 ppm) was 144 % of control, the “ACE (acetate)” value ([1]; 50.00 ppm) was 103 % of control and the “BUT (butyrate)” value ([1]; 50.00 ppm) was 98 % of control. The “ETOH (ethanol)” value ([1]; 50.00 ppm) was 0 % of control, the “IBU (isobutyrate)” value ([1]; 50.00 ppm) was 123 % of control and the “IVA (isovalerate)” value ([1]; 50.00 ppm) was 111 % of control. The “PRO (propionate)” value ([1]; 50.00 ppm) was 159 % of control, the “TOTAL (total volatile fatty acids)” value ([1]; 50.00 ppm) was 110 % of control and the VAL ([1]; 50.00 ppm) was 28 % of control. For the same compound, the “% PR (percent propionate)” value [2] was 119 % of control, the “ACE (acetate)” value [2] was 217 % of control and the “BUT (butyrate)” value [2] was 154 % of control. The “ETOH (ethanol)” value [2] was 104 % of control, the “GLU (glucose)” value [2] was 180 % of control and the “IBU (isobutyrate)” value [2] was 0 % of control. For the same compound, the “IVA (isovalerate)” value [2] was 0 % of control, the “LLA (L-lactate)” value [2] was 2 % of control and the “LYS (lysine)” value [2] was 25 % of control. The “PRO (propionate)” value [2] was 305 % of control, the “TOTAL (total volatile fatty acids)” value [2] was 257 % of control and the VAL [2] was 0 % of control.
With avoparcin the “AAN (alpha amino nitrogen)” value ([1]; 0.50 ppm) was 99 % of control, the “AMO (ammonia nitrogen)” value ([1]; 0.50 ppm) was 93 % of control and the “LYS (lysine)” value ([1]; 0.50 ppm) was 120 % of control. The “% PR (percent propionate)” value ([1]; 0.50 ppm) was 102 % of control, the “ACE (acetate)” value ([1]; 0.50 ppm) was 100 % of control and the “BUT (butyrate)” value ([1]; 0.50 ppm) was 103 % of control. The “ETOH (ethanol)” value ([1]; 0.50 ppm) was 0 % of control, the “IBU (isobutyrate)” value ([1]; 0.50 ppm) was 91 % of control and the “IVA (isovalerate)” value ([1]; 0.50 ppm) was 97 % of control. The “PRO (propionate)” value ([1]; 0.50 ppm) was 104 % of control, the “TOTAL (total volatile fatty acids)” value ([1]; 0.50 ppm) was 102 % of control and the VAL ([1]; 0.50 ppm) was 103 % of control. For the same compound, the “AAN (alpha amino nitrogen)” value ([1]; 5.00 ppm) was 120 % of control, the “AMO (ammonia nitrogen)” value ([1]; 5.00 ppm) was 97 % of control and the “LYS (lysine)” value ([1]; 5.00 ppm) was 150 % of control. For the same compound, the “% PR (percent propionate)” value ([1]; 5.00 ppm) was 123 % of control, the “ACE (acetate)” value ([1]; 5.00 ppm) was 94 % of control and the “BUT (butyrate)” value ([1]; 5.00 ppm) was 82 % of control. For the same compound, the “ETOH (ethanol)” value ([1]; 5.00 ppm) was 0 % of control, the “IBU (isobutyrate)” value ([1]; 5.00 ppm) was 103 % of control and the “IVA (isovalerate)” value ([1]; 5.00 ppm) was 94 % of control. For the same compound, the “PRO (propionate)” value ([1]; 5.00 ppm) was 116 % of control, the “TOTAL (total volatile fatty acids)” value ([1]; 5.00 ppm) was 94 % of control and the VAL ([1]; 5.00 ppm) was 73 % of control. The “AAN (alpha amino nitrogen)” value ([1]; 50.00 ppm) was 182 % of control, the “AMO (ammonia nitrogen)” value ([1]; 50.00 ppm) was 111 % of control and the “LYS (lysine)” value ([1]; 50.00 ppm) was 114 % of control. The “% PR (percent propionate)” value ([1]; 50.00 ppm) was 129 % of control, the “ACE (acetate)” value ([1]; 50.00 ppm) was 98 % of control and the “BUT (butyrate)” value ([1]; 50.00 ppm) was 90 % of control. The “ETOH (ethanol)” value ([1]; 50.00 ppm) was 0 % of control, the “IBU (isobutyrate)” value ([1]; 50.00 ppm) was 117 % of control and the “IVA (isovalerate)” value ([1]; 50.00 ppm) was 90 % of control. The “PRO (propionate)” value ([1]; 50.00 ppm) was 130 % of control, the “TOTAL (total volatile fatty acids)” value ([1]; 50.00 ppm) was 101 % of control and the VAL ([1]; 50.00 ppm) was 68 % of control.
`CNC1C(=O)NC2C(=O)NC(C(=O)NC3C(=O)NC4C(=O)NC(C(=O)NC(C(=O)O)c5cc(O)cc(OC6OC(CO)C(O)C(O)C6O)c5-c5cc4ccc5O)C(O)c4cc(Cl)c(c(Cl)c4)Oc4cc3cc(c4OC3OC(C(=O)O)C(O)C(O)C3NC(=O)CCCCCCCCC(C)C)Oc3ccc(cc3Cl)C2O)c2cc(cc(O)c2Cl)Oc2cc1ccc2O` (stereo not drawn) [AAD-216 C] was tested, and the “AAN (alpha amino nitrogen)” value ([1]; 0.50 ppm) was 96 % of control, the “AMO (ammonia nitrogen)” value ([1]; 0.50 ppm) was 99 % of control and the “LYS (lysine)” value ([1]; 0.50 ppm) was 78 % of control. For the same compound, the “% PR (percent propionate)” value ([1]; 0.50 ppm) was 105 % of control, the “ACE (acetate)” value ([1]; 0.50 ppm) was 94 % of control and the “BUT (butyrate)” value ([1]; 0.50 ppm) was 101 % of control. The “ETOH (ethanol)” value ([1]; 0.50 ppm) was 0 % of control, the “IBU (isobutyrate)” value ([1]; 0.50 ppm) was 123 % of control and the “IVA (isovalerate)” value ([1]; 0.50 ppm) was 123 % of control. The “PRO (propionate)” value ([1]; 0.50 ppm) was 105 % of control, the “TOTAL (total volatile fatty acids)” value ([1]; 0.50 ppm) was 100 % of control and the VAL ([1]; 0.50 ppm) was 102 % of control. For the same compound, the “AAN (alpha amino nitrogen)” value ([1]; 5.00 ppm) was 136 % of control, the “AMO (ammonia nitrogen)” value ([1]; 5.00 ppm) was 98 % of control and the “LYS (lysine)” value ([1]; 5.00 ppm) was 102 % of control. For the same compound, the “% PR (percent propionate)” value ([1]; 5.00 ppm) was 148 % of control, the “ACE (acetate)” value ([1]; 5.00 ppm) was 96 % of control and the “BUT (butyrate)” value ([1]; 5.00 ppm) was 83 % of control. The “ETOH (ethanol)” value ([1]; 5.00 ppm) was 0 % of control, the “IBU (isobutyrate)” value ([1]; 5.00 ppm) was 86 % of control and the “IVA (isovalerate)” value ([1]; 5.00 ppm) was 56 % of control. The “PRO (propionate)” value ([1]; 5.00 ppm) was 148 % of control, the “TOTAL (total volatile fatty acids)” value ([1]; 5.00 ppm) was 100 % of control and the VAL ([1]; 5.00 ppm) was 51 % of control. The “AAN (alpha amino nitrogen)” value ([1]; 50.00 ppm) was 166 % of control, the “AMO (ammonia nitrogen)” value ([1]; 50.00 ppm) was 106 % of control and the “LYS (lysine)” value ([1]; 50.00 ppm) was 144 % of control. For the same compound, the “% PR (percent propionate)” value ([1]; 50.00 ppm) was 149 % of control, the “ACE (acetate)” value ([1]; 50.00 ppm) was 98 % of control and the “BUT (butyrate)” value ([1]; 50.00 ppm) was 88 % of control. The “ETOH (ethanol)” value ([1]; 50.00 ppm) was 0 % of control, the “IBU (isobutyrate)” value ([1]; 50.00 ppm) was 111 % of control and the “IVA (isovalerate)” value ([1]; 50.00 ppm) was 87 % of control. For the same compound, the “PRO (propionate)” value ([1]; 50.00 ppm) was 154 % of control, the “TOTAL (total volatile fatty acids)” value ([1]; 50.00 ppm) was 104 % of control and the VAL ([1]; 50.00 ppm) was 30 % of control. For the same compound, the “% PR (percent propionate)” value [2] was 127 % of control, the “ACE (acetate)” value [2] was 175 % of control and the “BUT (butyrate)” value [2] was 105 % of control. The “ETOH (ethanol)” value [2] was 0 % of control, the “GLU (glucose)” value [2] was 181 % of control and the “IBU (isobutyrate)” value [2] was 0 % of control. The “IVA (isovalerate)” value [2] was 0 % of control, the “LLA (L-lactate)” value [2] was 2 % of control and the “LYS (lysine)” value [2] was 29 % of control. For the same compound, the “PRO (propionate)” value [2] was 281 % of control, the “TOTAL (total volatile fatty acids)” value [2] was 221 % of control and the VAL [2] was 0 % of control.
